Patent publication US20250059186A1, “Tricyclic Fused Heterocyclic PDE3/4 Dual Inhibitor and Use Thereof” (XIZANG HAISCO PHARMACEUTICAL CO., LTD., priority 2021, published 2025)
Like-named read-outs stand apart in the source and are kept apart here.

Experiments:
[1] = target: PDE3A recombinant enzyme (Homo sapiens (Human), UniProt Q14432); experiment: In vitro assay of inhibitory activity against PDE 3A enzyme (FP, FAM-cAMP); format: biochemical
Procedure: 1. In Vitro Assay of the Inhibitory Activity of Compounds Against PDE 3A and PDE 4B2 Enzymes
• Envision 2104 Multilabel Reader (PerkinElmer) • Black 96-well Plate (Cat #6005540, PerkinElmer) • PDE3A Assay Kit (BPS, Cat. 79736), PDE4B2 Assay Kit (BPS, Cat. 60343) • PDE3A recombinant enzyme • PDE4B2 recombinant enzyme • FAM-Cyclic-3′, 5′-AMP • PDE assay buffer • Binding Agent • Binding Agent Diluent (cAMP)
• 1) Prepare FAM cAMP working solution: 20 μL of FAM-Cyclic-3′, 5′-AMP stock was added to 1980 μL of PDE assay buffer. The mixture was added to all wells at 25 μL/well. • 2) Prepare compound solution: the test compounds were dissolved in DMSO to make a 10 mM stock solution. The compound stock solution was diluted in DMSO to a 100× Top Dose diluent. 5 μL of 100× Top Dose diluent was added to 45 μL of PDE assay buffer to prepare a compound Top Dose working solution. Then, the compound working solution was subjected to double dilution with PDE assay buffer containing 10% DMSO to prepare compound working solutions of various concentrations. The compound working solutions were added to compound wells at 5 μL/well. 5 μL of PDE assay buffer containing 10% DMSO was added to each control well. • 3) Prepare PDE enzyme solution: PDE3A and PDE4B2 enzyme stock solutions were diluted to 150 pg/μL and 50 pg/μL, respectively, with PDE assay buffer, and added to all compound wells and Vehicle control wells at 20 μL/well. 20 μL of PDE assay buffer was added to Blank control wells. • 4) React at room temperature for 1 h. • 5) Prepare Binding Agent: 80 μL of binding agent was added to 7920 μL of binding agent diluent, and the mixture was mixed well and added to all wells at 100 μL/well. • 6) React at room temperature for 1 h. • 7) Read FP on Envision. • 8) Calculation formula for original data:
[formula] • FPS=sample FP • FPV=Vehicle control FP • FPB=Blank control FP.
Nonlinear regression analysis of log[dose]-inhibition rate was performed by graphpad and IC50 was calculated.

[2] = tested on: methacholine-induced bronchoconstriction; experiment: Inhibitory effect on methacholine-induced bronchoconstriction in guinea pigs (WBP, Penh); format: in vivo, guinea pig; conditions: male guinea pigs, oral dose of 10 mg/kg, 6 h after drug exposure
Procedure: 2. Study on the Inhibitory Effect of Compounds on Methacholine-Induced Bronchoconstriction in Guinea Pigs
Male guinea pigs were selected as test animals in this study. The drug-treated group was orally administered with RPL554, compound 1 and compound 7 at a dose of 10 mg/kg, respectively, and the control group was administered with an equal dose of solvent. The animals were placed in a WBP instrument aerosol chamber 2 h, 4 h and 6 h after drug exposure. After the animals were adapted, they inhaled 300 μL of […] solution (0.5 mg/mL) by nebulization. After the end of the methacholine (Mch) exposure, Penh values were recorded continuously for 7 minutes. The percentage of bronchoconstriction inhibition by the compounds was calculated based on the Penh values.

[3] = tested on: guinea pig tracheal rings; experiment: Experiment on guinea pig tracheal rings (carbachol constriction); conditions: 10 μM single dose; for OT50 (50% inhibition onset time) / RT50 (50% inhibition recovery time): carbachol-constricted tracheal rings; for inhibition at 10 µM: Cavia porcellus, 6.75 h
Procedure: 3. Experiment on Guinea Pig Tracheal Rings
Experimental method: guinea pig tracheal rings were placed in a specific culture medium (Krebs-Henseleit) and balanced under 1 g tension for 40 minutes; carbachol was added in an amount sufficient to achieve 100% constriction of the tracheal rings; […] contractile tension of the tracheal rings.

[4] = cited from earlier work
[5] = in vivo; cited from earlier work
[6] = tested on: PDE4; conditions: cited from earlier work
[7] = class symbols, read-out: PDE 3A IC50
[8] = values in text, read-out: PDE 3 IC50

PDE3A recombinant enzyme, sequence (Q14432 whole entry): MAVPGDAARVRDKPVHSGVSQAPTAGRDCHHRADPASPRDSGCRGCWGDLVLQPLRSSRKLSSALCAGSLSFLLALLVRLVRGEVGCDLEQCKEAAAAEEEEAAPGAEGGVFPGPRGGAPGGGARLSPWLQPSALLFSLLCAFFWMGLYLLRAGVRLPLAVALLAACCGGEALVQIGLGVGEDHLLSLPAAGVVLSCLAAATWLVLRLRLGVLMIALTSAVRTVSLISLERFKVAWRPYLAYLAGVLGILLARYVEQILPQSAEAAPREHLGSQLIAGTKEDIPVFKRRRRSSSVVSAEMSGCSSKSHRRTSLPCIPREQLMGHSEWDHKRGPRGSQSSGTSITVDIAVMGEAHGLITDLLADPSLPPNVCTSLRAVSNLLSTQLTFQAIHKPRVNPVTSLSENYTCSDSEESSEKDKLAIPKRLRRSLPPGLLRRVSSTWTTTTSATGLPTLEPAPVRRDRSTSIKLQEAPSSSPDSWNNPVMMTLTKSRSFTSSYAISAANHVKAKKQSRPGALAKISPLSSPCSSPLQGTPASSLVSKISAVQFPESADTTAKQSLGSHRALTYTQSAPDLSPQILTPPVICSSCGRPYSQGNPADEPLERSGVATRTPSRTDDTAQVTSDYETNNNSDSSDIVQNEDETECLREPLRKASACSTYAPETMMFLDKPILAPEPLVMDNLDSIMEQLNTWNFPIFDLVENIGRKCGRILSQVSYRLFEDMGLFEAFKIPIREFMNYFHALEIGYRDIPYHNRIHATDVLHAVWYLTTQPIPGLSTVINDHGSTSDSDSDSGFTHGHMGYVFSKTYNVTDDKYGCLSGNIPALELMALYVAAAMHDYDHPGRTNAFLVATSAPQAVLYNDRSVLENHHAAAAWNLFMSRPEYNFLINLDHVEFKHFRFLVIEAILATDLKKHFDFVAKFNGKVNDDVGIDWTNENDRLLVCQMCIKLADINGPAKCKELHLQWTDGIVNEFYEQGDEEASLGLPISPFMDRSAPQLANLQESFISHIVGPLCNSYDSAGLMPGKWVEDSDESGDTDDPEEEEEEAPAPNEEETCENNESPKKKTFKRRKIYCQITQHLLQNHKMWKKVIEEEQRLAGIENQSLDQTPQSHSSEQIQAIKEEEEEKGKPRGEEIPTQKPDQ

SMILES	IC50 [1, 7]	IC50 [1, 8]	Inhibition rate on bronchoconstriction [2]	OT50 (50% inhibition onset time) [3]	RT50 (50% inhibition recovery time) [3]	inhibition at 10 µM [3]	further results
COc1cc2c(cc1OC)-c1c/c(=N\c3c(C)cc(C(F)(F)F)cc3C)n(CCNC(N)=O)c(=O)n1CC2 [Compound 2, (E)-1-(2-(2-((2,6-dimethyl-4-(trifluoromethyl)phenyl)imino)-9,10-dimethoxy-4-oxo-6,7-dihydro-2H-pyrimido[6,1-a]isoquinolin-3(4H)-yl)ethyl)urea]	–	–	–	–	–	–	IC50 [1]: 50 to 100 nM
[2H]C([2H])([2H])Oc1cc2c(cc1OC)-c1c/c(=N\c3c(C)cc(C)cc3C)n(CCNC(N)=O)c(=O)n1CC2 [Compound 1, (E)-1-(2-(2-(mesitylimino)-10-methoxy-9-(methoxy-d3)-4-oxo-6,7-dihydro-2H-pyrimido[6,1-a]isoquinolin-3(4H)-yl)ethyl)urea]	< 50 nM	0.15 nM	69%	–	–	–	–
COc1cc2c(cc1OC)-c1c/c(=N\c3c(C)cc(C4CC4)cc3C)n(CCNC(N)=O)c(=O)n1CC2 [Compound 3, (E)-1-(2-(2-((4-cyclopropyl-2,6-dimethylphenyl)imino)-9,10-dimethoxy-4-oxo-6,7-dihydro-2H-pyrimido[6,1-a]isoquinolin-3(4H)-yl)ethyl)urea]	< 50 nM	–	–	–	–	–	–
COc1cc2c(cc1OC)-c1c/c(=N\c3c(C)cc(F)cc3C)n(CCNC(N)=O)c(=O)n1CC2 [Compound 5, (E)-1-(2-(2-((4-fluoro-2,6-dimethylphenyl)imino)-9,10-dimethoxy-4-oxo-6,7-dihydro-2H-pyrimido[6,1-a]isoquinolin-3(4H)-yl)ethyl)urea]	50 to 100 nM	–	–	–	–	–	–
COc1cc2c(cc1OC)-c1c/c(=N\c3c(C)cc(C)cc3C)n(CCNC(N)=O)c(=O)n1CC2 [RPL554, reference compound]	–	–	35%	25.51 min	>6.75 h	56.7%	solubility [4]: poor solubility; plasma clearance [5]: high plasma clearance; PDE4 inhibitory activity [6]: unsatisfactory
[2H]C([2H])([2H])Oc1cc2c(cc1OC)CCn1c-2c/c(=N\c2c(C)cc(C)cc2C)n(CCNC(N)=O)c1=O [Compound 7, (E)-1-(2-(2-(mesitylimino)-9-methoxy-10-(methoxy-d3)-4-oxo-6,7-dihydro-2H-pyrimido[6,1-a]isoquinolin-3(4H)-yl)ethyl)urea]	< 50 nM	0.17 nM	80%	19.97 min	>6.75 h	75.9%	–
